Consider three compounds from patent publication US20250197368A1 (priority 2020, published 2025).

The target in experiment [1] is human α2β3γ2 GABAARs (benzodiazepine site) (Homo sapiens (Human), UniProt P18507+P47869). Kind of experiment: In vitro radioligand binding assay ([3H]Ro15-1788 displacement), α2-GABAAR Ki. In outline: (§1)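 Ki derived via Cheng-Prusoff from IC50 for displacement of 4 nM [3H]Ro15-1788 (Kd from saturation binding), with 1-3 μM TP003 defining nonspecific binding. Incubation lasted 1 h at 4° C on membranes of induced L(tk−) cells stably transfected with the human subunits; detection by filtration and scintillation counting.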
human α2β3γ2 GABAARs (benzodiazepine site), sequence (P47869 29-451): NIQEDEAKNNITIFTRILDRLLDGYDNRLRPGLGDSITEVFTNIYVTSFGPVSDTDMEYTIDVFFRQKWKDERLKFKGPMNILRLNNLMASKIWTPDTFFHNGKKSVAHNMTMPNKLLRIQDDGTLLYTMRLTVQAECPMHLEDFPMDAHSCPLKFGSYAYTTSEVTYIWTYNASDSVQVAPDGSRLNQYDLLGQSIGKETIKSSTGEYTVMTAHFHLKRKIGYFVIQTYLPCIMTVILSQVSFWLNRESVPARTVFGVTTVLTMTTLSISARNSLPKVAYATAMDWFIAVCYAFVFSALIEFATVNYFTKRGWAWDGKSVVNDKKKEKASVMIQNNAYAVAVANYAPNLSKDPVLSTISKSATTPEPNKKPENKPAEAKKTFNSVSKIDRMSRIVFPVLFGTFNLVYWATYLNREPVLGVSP
human α2β3γ2 GABAARs (benzodiazepine site), sequence (P28472 26-473 partner): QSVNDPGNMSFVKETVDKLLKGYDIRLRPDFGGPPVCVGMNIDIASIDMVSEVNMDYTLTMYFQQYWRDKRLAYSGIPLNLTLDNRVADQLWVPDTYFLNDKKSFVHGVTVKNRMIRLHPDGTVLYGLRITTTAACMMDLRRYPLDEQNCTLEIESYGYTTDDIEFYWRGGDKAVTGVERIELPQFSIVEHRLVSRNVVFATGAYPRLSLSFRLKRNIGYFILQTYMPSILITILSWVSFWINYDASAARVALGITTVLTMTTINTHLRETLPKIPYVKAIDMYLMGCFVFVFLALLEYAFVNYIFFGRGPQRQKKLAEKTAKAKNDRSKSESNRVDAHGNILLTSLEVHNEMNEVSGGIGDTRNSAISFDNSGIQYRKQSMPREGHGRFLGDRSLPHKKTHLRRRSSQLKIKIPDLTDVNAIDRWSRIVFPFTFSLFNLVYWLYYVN
human α2β3γ2 GABAARs (benzodiazepine site), sequence (P18507 40-475): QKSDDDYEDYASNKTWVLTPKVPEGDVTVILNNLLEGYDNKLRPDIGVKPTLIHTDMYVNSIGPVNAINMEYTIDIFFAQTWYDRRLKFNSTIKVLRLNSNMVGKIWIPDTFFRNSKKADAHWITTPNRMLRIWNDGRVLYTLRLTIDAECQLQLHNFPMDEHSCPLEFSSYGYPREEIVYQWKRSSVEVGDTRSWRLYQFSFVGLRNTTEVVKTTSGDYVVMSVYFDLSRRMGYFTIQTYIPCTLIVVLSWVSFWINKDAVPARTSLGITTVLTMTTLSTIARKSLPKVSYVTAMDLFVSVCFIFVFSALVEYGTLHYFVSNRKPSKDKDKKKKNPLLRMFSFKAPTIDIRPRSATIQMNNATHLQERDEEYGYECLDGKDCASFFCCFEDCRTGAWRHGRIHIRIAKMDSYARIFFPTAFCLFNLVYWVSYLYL

The target of experiment [2] is human α3β3γ2 GABAARs (benzodiazepine site) (Homo sapiens (Human), UniProt P18507+P34903). Kind of experiment: In vitro radioligand binding assay ([3H]Ro15-1788 displacement), α3-GABAAR Ki. The settings on record: L(tk-) cell membranes, 4 nM [3H]Ro15-1788. In outline: as §1
The next experiment relates to human α2β3γ2 GABAARs. Kind of experiment: In vitro electrophysiological recording assay (automated patch-clamp), α2-GABAAR relative efficacy. The experiment is classed as cell-based. The conditions noted are these: % efficacy normalised to diazepam; GABA EC10-20; concentration generally >= 100 times Ki. The method, boiled down: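 Relative efficacy is % enhancement of the leak-subtracted GABA EC10-20 peak current, divided by the separately measured diazepam value; compound generally tested at ≥100× Ki after ≥1 min pre-application. Recordings at room temperature, human receptors stably expressed in L(tk^−) (QPatch, −65 mV) or HEK293 (SyncroPatch, −80 mV) cells.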
On the technique in general: The patch-clamp technique gives a direct electrical read-out from membranes.

In general, Ki refers to a dissociation constant, usually derived from enzyme kinetics or from competition with a known ligand.

With `CCCNC(=O)c1c(N)c2cccc(-c3cnccc3OC)c2[nH]c1=O` [Example 17, 4-Amino-8-(4-methoxy-3-pyridyl)-2-oxo-N-propyl-1H-quinoline-3-carboxamide], the results for the Ki in experiment [1] and in experiment [2] were 1.64 nM and 8.74 nM, respectively. Further, the “α2-GABAAR Relative Efficacy (vs. Diazepam)” value (shortened to “α2-GABAAR Relative Efficacy”) in the experiment with human α2β3γ2 GABAARs was 0.33.

With `CCCNC(=O)c1c(N)c2cccc(-c3cnc(C)cc3OC)c2[nH]c1=O` [Example 18, 4-Amino-8-(4-methoxy-6-methyl-3-pyridyl)-2-oxo-N-propyl-1H-quinoline-3-carboxamide], the inhibition constant (Ki) in experiment [1] was 9.77 nM; in experiment [2], 27.9 nM. The “α2-GABAAR Relative Efficacy” value with human α2β3γ2 GABAARs is 0.29.

For `CCCNC(=O)c1c(N)c2cccc(-c3nc(C)ncc3F)c2[nH]c1=O` [Example 40, 4-Amino-8-(5-fluoro-2-methyl-pyrimidin-4-yl)-2-oxo-N-propyl-1H-quinoline-3-carboxamide], the Ki was determined as 1.19 nM in experiment [1] and 5.06 nM in experiment [2]. For the same compound, the “α2-GABAAR Relative Efficacy” value in the experiment on human α2β3γ2 GABAARs came out at 0.29.
